Assay results: the NIST ThermoML archive (doi:10.1021/acs.jced.7b00181)
± gives the expanded uncertainty stated by the source.

Settings: Liquid, Concentric cylinders viscometry

| viscosity (298.15 K, 10000 kPa) [mPa·s] | viscosity (298.15 K, 50000 kPa) [mPa·s] | viscosity (298.15 K, 75000 kPa) [mPa·s] | viscosity (313.15 K, 10000 kPa) [mPa·s] | viscosity (313.15 K, 50000 kPa) [mPa·s] | viscosity (313.15 K, 75000 kPa) [mPa·s] | viscosity (323.15 K, 10000 kPa) [mPa·s] | viscosity (323.15 K, 50000 kPa) [mPa·s] | viscosity (323.15 K, 75000 kPa) [mPa·s] | viscosity (333.15 K, 10000 kPa) [mPa·s] | viscosity (333.15 K, 50000 kPa) [mPa·s] | viscosity (333.15 K, 75000 kPa) [mPa·s] | viscosity (343.15 K, 10000 kPa) [mPa·s] | viscosity (343.15 K, 50000 kPa) [mPa·s] | viscosity (343.15 K, 75000 kPa) [mPa·s] | viscosity (353.15 K, 10000 kPa) [mPa·s] | viscosity (353.15 K, 50000 kPa) [mPa·s] | viscosity (353.15 K, 75000 kPa) [mPa·s] | Structure (SMILES) |
| --- | --- | --- | --- | --- | --- | --- | --- | --- | --- | --- | --- | --- | --- | --- | --- | --- | --- | --- |
| 413 ± 32 | 913 ± 75 | 1417 ± 120 | 189 ± 15 | 401 ± 33 | 615 ± 52 | 114 ± 9 | 223 ± 17 | 364 ± 29 | 78.1 ± 5.7 | 159 ± 12 | 232 ± 18 | 53.5 ± 3.9 | 112 ± 8 | 162 ± 12 | 37.9 ± 2.8 | 76.3 ± 5.6 | 109 ± 8 | CCCCCCCCCCCCCC[P+](CCCCCC)(CCCCCC)CCCCCC.FC(F)(F)C(F)(F)[P-](F)(F)(F)(C(F)(F)C(F)(F)F)C(F)(F)C(F)(F)F |
| 354 ± 27 | 571 ± 45 | 737 ± 59 | 154 ± 12 | 238 ± 19 | 304 ± 25 | 94 ± 7 | 142 ± 11 | 186 ± 14 | 63.8 ± 4.6 | 94.8 ± 6.9 | 120 ± 9 | 44.5 ± 3.2 | 65.9 ± 4.8 | 82.1 ± 6 | 31.4 ± 2.3 | 46 ± 3.4 | 56.9 ± 4.2 | CCCCCCOS(=O)(=O)[O-].CC[n+]1ccn(C)c1 [3-ethyl-1-methyl-1H-imidazolium hexyl sulfate] |
